The values below come from patent US12497406B2, “Microbiocidal derivatives” (SYNGENTA CROP PROTECTION AG, priority 2019, dated 2025).

The test system of assay [1] is Mycosphaerella graminicola (Septoria tritici). The assay is described as follows: Mycosphaerella graminicola (Septoria tritici) / liquid culture (Septoria blotch). It counts as cell-based. Particulars: Zymoseptoria tritici, liquid culture (PDB), growth inhibition photometrically 4-5 days after application, compared to untreated control. On the procedure: Example B11. Mycosphaerella graminicola (Septoria tritici)/Liquid Culture (Septoria Blotch) Conidia of the fungus from cryogenic storage are directly mixed into nutrient broth (PDB potato dextrose broth). After placing a (DMSO) solution of test compound into a microtiter plate (96-well format), the nutrient broth containing the fungal spores is added. The test plates are incubated at 24° C. and the inhibition of growth is determined photometrically 4-5 days after application.

In assay [2] the test system is Mycosphaerella arachidis (Cercospora arachidicola). The assay can be described thus: Mycosphaerella arachidis (Cercospora arachidicola) / liquid culture (early leaf spot). The conditions noted are these: liquid culture (PDB), growth inhibition photometrically 4-5 days after application, compared to untreated control. The assay is classed as cell-based. Here is the method: Example B7. Mycosphaerella arachidis (Cercospora arachidicola)/Liquid Culture (Early Leaf Spot) Conidia of the fungus from cryogenic storage are directly mixed into nutrient broth (PDB potato dextrose broth). After placing a (DMSO) solution of test compound into a microtiter plate (96-well format), the nutrient broth containing the fungal spores is added. The test plates are incubated at 24° C. and the inhibition of growth is determined photometrically 4-5 days after application. […] […]-22, and P-25.

In assay [3] the test system is Glomerella lagenarium (Colletotrichum lagenarium). The assay is described as follows: Glomerella lagenarium (Colletotrichum lagenarium) / liquid culture (anthracnose). The assay is classed as cell-based. The conditions noted are these: Colletotrichum orbiculare, liquid culture (PDB), growth inhibition photometrically 3-4 days after application, compared to untreated control. Here is the method: Example B3. Glomerella lagenarium (Colletotrichum lagenarium)/Liquid Culture (Anthracnose) Conidia of the fungus from cryogenic storage are directly mixed into nutrient broth (PDB potato dextrose broth). After placing a (DMSO) solution of test compound into a microtiter plate (96-well format), the nutrient broth containing the fungal spores is added. The test plates are incubated at 24° C. and the inhibition of growth is measured photometrically 3-4 days after application. […] […]-25, and P-26.

Assay [4] concerns Pyrenophora teres. The assay is described as follows: Pyrenophora teres / barley / leaf disc preventative (net blotch). Particulars: foliar, barley leaf segments cv. Hasso, inoculated 2 days after application, compared to untreated control. The assay is classed as in vivo. Here is the method:
Example B10. Pyrenophora teres/Barley/Leaf Disc Preventative (Net Blotch) Barley leaf segments cv. Hasso are placed on agar in a multiwell plate (24-well format) and sprayed with the formulated test compound diluted in water. The leaf segments are inoculated with a spore suspension of the fungus 2 days after application. The inoculated leaf segments are incubated at 20° C. and 65% rh under a light regime of 12 h light/12 h darkness in a climate cabinet and the activity of a compound is assessed as disease control compared to untreated when an appropriate level of disease damage appears in untreated check leaf segments (5-7 days after application). […] […]-25, and P-26.

In assay [5] the test system is Monographella nivalis (Microdochium nivale). The assay is described as follows: Monographella nivalis (Microdochium nivale) / liquid culture (foot rot cereals). The assay is classed as cell-based. The conditions noted are these: liquid culture (PDB), growth inhibition photometrically 4-5 days after application, compared to untreated control. On the procedure:
Example B6. Monographella nivalis (Microdochium nivale)/Liquid Culture (Foot Rot Cereals) Conidia of the fungus from cryogenic storage are directly mixed into nutrient broth (PDB potato dextrose broth). After placing a (DMSO) solution of test compound into a microtiter plate (96-well format), the nutrient broth containing the fungal spores is added. The test plates are incubated at 24° C. and the inhibition of growth is determined photometrically 4-5 days after application. […] […]-25, and P-26.

Assay [6] deals with Puccinia recondita f. sp. tritici. The assay is described as follows: Puccinia recondita f. sp. tritici / wheat / leaf disc preventative (brown rust). Particulars: foliar, wheat leaf segments cv. Kanzler, inoculated 1 day after application, compared to untreated control. It counts as in vivo. Here is the method:
Example B8. Puccinia recondita f. Sp. tritici/Wheat/Leaf Disc Preventative (Brown Rust) Wheat leaf segments cv. Kanzler are placed on agar in multiwell plates (24-well format) and sprayed with the formulated test compound diluted in water. The leaf disks are inoculated with a spore suspension of the fungus 1 day after application. The inoculated leaf segments are incubated at 19° C. and 75% rh under a light regime of 12 h light/12 h darkness in a climate cabinet and the activity of a compound is assessed as percent disease control compared to untreated when an appropriate level of disease damage appears in untreated check leaf segments (7-9 days after application). […] […]-25, and P-26.

The subject of assay [7] is Alternaria solani. The assay is described as follows: Alternaria solani / tomato / leaf disc (early blight). It counts as in vivo. The conditions noted are these: foliar, tomato leaf disks cv. Baby, inoculated 2 days after application, compared to untreated control. Here is the method: Example B1. Alternaria solani/Tomato/Leaf Disc (Early Blight) Tomato leaf disks cv. Baby are placed on agar in multiwell plates (24-well format) and sprayed with the formulated test compound diluted in water. The leaf disks are inoculated with a spore suspension of the fungus 2 days after application. The inoculated leaf disks are incubated at 23° C./21° C. […] […]-24, and P-25.

In assay [8] the test system is Magnaporthe grisea (Pyricularia oryzae). The assay is described as follows: whole plant or invertebrate. The assay is classed as in vivo. Particulars: foliar, read-out: control of Magnaporthe grisea.
The subject of assay [9] is Botryotinia fuckeliana (Botrytis cinerea). The assay can be described thus: Botryotinia fuckeliana (Botrytis cinerea) / liquid culture (gray mould). It counts as cell-based. The conditions noted are these: 20 ppm; liquid culture (Vogels broth), growth inhibition photometrically 3-4 days after application; compared to untreated control. On the procedure: Example B2. Botryotinia fuckeliana (Botrytis cinerea)/Liquid Culture (Gray Mould) Conidia of the fungus from cryogenic storage are directly mixed into nutrient broth (Vogels broth). After placing a (DMSO) solution of test compound into a microtiter plate (96-well format), the nutrient broth containing the fungal spores is added. The test plates are incubated at 24° C. and the inhibition of growth is determined photometrically 3-4 days after application. […] P-22.

Usually inhibition of growth stands for the percentage by which the read-out fell short of the control. Higher therefore signals a response far below the control. For the molecule `CC1(C)CCC1NC(=O)c1nc(Nc2cccc(F)c2)cc2c1OCO2` (centres unmarked) [Compound P-8, N-(2,2-dimethylcyclobutyl)-6-(3-fluoroanilino)-[1,3]dioxolo[4,5-c]pyridine-4-carboxamide], the inhibition of growth at 20 ppm in assay [1], in [2], in assay [3] and in [5] was at least 80% throughout. For the same molecule, the pest or weed control at 200 ppm in [4], in [6] and in assay [7] was at least 80% in each case.

In the case of `CC1(NC(=O)c2nc(Nc3cc(F)cc(F)c3)cc3c2OCO3)CCC1` [Compound P-22, 6-(3,5-difluoroanilino)-N-(1-methylcyclobutyl)-[1,3]dioxolo[4,5-c]pyridine-4-carboxamide], the pest or weed control at 200 ppm in [8], in [4], in assay [6] and in assay [7] was at least 80% each time. Besides, the inhibition of growth at 20 ppm in [1], in [2], in [3] and in assay [5] was at least 80% each time. The “control of Botryotinia fuckeliana” value in [9] was “at least 80%”.

Turning to `CC(C)(C)NC(=O)c1nc(Nc2cc(F)cc(F)c2)cc2c1OCO2` [Compound P-21, N-tert-butyl-6-(3,5-difluoroanilino)-[1,3]dioxolo[4,5-c]pyridine-4-carboxamide], the pest or weed control at 200 ppm in [8], in [4], in assay [6] and in [7] was at least 80% throughout. Also, the inhibition of growth at 20 ppm in assay [1], in assay [2], in assay [3] and in assay [5] was at least 80% in each case.

As for `CCC(C)(C)NC(=O)c1nc(Nc2cc(F)cc(F)c2)cc2c1OCO2` [Compound P-18, 6-(3,5-difluoroanilino)-N-(1,1-dimethylpropyl)-[1,3]dioxolo[4,5-c]pyridine-4-carboxamide], the pest or weed control at 200 ppm in [8], in assay [4] and in assay [6] was at least 80% each time. The inhibition of growth at 20 ppm in [1], in assay [2], in assay [3] and in [5] was at least 80% each time.

In the case of `CC1(NC(=O)c2nc(Nc3cc(F)cc(F)c3)cc3c2OCO3)CCCC1` [Compound P-25, 6-(3,5-difluoroanilino)-N-(1-methylcyclopentyl)-[1,3]dioxolo[4,5-c]pyridine-4-carboxamide], the pest or weed control at 200 ppm in assay [8], in assay [4], in assay [6] and in assay [7] was at least 80% in each case. The inhibition of growth at 20 ppm in assay [1], in assay [2], in [3] and in [5] was at least 80% each time.

With `CC1(C)CCC1NC(=O)c1nc(Nc2cc(F)cc(F)c2)cc2c1OCO2` (centres unmarked) [Compound P-11, 6-(3,5-difluoroanilino)-N-(2,2-dimethylcyclobutyl)-[1,3]dioxolo[4,5-c]pyridine-4-carboxamide], the inhibition of growth at 20 ppm in assay [1], in assay [2], in assay [3] and in assay [5] was at least 80% each time. The molecule also showed a pest or weed control at 200 ppm in assay [6] of at least 80%.
